In US20250186600A1, “EXCIPIENT COMPOUNDS FOR PROTEIN FORMULATIONS” (Comera Life Sciences, Inc., priority 2020, published 2025):
Structures can show the parent of a compound that is named as a salt. Residues, ends and D or L forms follow the SMILES beside them.

How the values were obtained:
[1] = system: ustekinumab; assay: Urea denaturation, Sypro orange fluorescence (Example 44); format: physicochemical; settings: excipient 5 mg/mL, ustekinumab 1 mg/mL, 6M urea, 20 mM histidine pH 6.0, Sypro orange fluorescence
Description: It is known that urea denatures proteins in solution and causes them to unfold. The screening methodology in this example involved adding a specific concentration of urea to a therapeutic protein solution such as ustekinumab. […] One method to track protein unfolding involves the use of extrinsic fluorescent dyes such as Sypro orange. Sypro orange binds to hydrophobic regions in the unfolded protein structure, leading to an increase in the fluorescence signal observed. Measuring the differences in the fluorescence intensity of unfolded protein-Sypro orange complex in presence of different excipients thus allows one to identify any stabilizing effects.
All excipients used in this Example, listed in Table 45 below, were of the highest purity, and were obtained from Sigma Aldrich (St. Louis, MO) or Cayman Chemical (Ann Arbor, MI). […] This urea stock solution was then added to a final concentration of 6M to produce the test solutions (excipient plus protein plus urea). […] The pH of the mixture was rechecked and confirmed to be at pH 6.0. The test solutions were allowed to incubate at room temperature for 30 min.

[2] = system: omalizumab; assay: Diffusion interaction parameter kD of omalizumab by DLS (Example 62); settings: omalizumab 10 to 0.6 mg/mL, 0.1M excipient, His HCl pH 6.0, 25° C.
[3] = system: omalizumab; assay: Viscosity of omalizumab solution by DLS of gold nanoparticles (Example 62); settings: omalizumab approximately 200 mg/mL, excipient 0.1M or lower, His HCl pH 6.0, 25° C.
[4] = system: omalizumab; assay: DLS viscosity of concentrated omalizumab (Example 54); format: physicochemical; settings: concentrated omalizumab 9 parts : 1 part excipient stock (1 M or solubility limit), 20 mM HisHCl pH 6
Description: Hordenine HCl was purchased from Bulk Supplements (Henderson, NV).
The concentrated protein formulation was then combined with a stock excipient solution or a control at a ratio of 9 parts protein: 1 part excipient solution or buffer (for the control), and aliquots were added to the wells of a 384 well microplate (Aurora Microplates, Whitefish, MT). […] After the microplate was shaken, 2 microliters of a 5-fold dilution of polyethylene glycol surface-modified gold nanoparticles having a diameter of 100 nm (nanoComposix, San Diego, CA) in 20 mM His HCl were added to each sample well. […] In this example, the ratio of apparent radius to the actual radius of the gold nanoparticle was multiplied by the viscosity of water at 25° C. to calculate the viscosity of the protein formulation in centipoise (cP).

[5] = system: ustekinumab; assay: Stabilization at low pH, Sypro orange fluorescence (Example 45); settings: excipient 5 mg/mL, ustekinumab 1 mg/mL, glycine acidification buffer pH 2.6, Sypro orange fluorescence

In the case of `O=C(O)c1ccncc1` [isonicotinic acid], the “% increased stability” value [1] is reported as 4.4%.

In the case of `O=C(O)[C@]1(O)C[C@@H](O)[C@@H](O)[C@H](O)C1` [quinic acid], the kD ([2]; Table 62B series) is reported as -24.2 mL/g and the “Viscosity normalized to control” value ([3]; Table 62B series) is reported as 0.67.

With `O=C(O)c1cccnc1` [nicotinic acid] the kD ([2]; Table 62B series) was -24.5 mL/g and the “Viscosity normalized to control” value ([3]; Table 62B series) was 0.55.

For `Cn1ccnc1` [Excipient 1-methylimidazole, 1-methylimidazole], the “DLS Viscosity, Replicate 1” value [4] was 53.4 cP and the “DLS Viscosity, Replicate 2” value [4] was 54.8 cP.

For `Nc1ccncc1` [Excipient 4-aminopyridine, 4-aminopyridine], the kD ([2]; Table 62B series) was -22.5 mL/g and the “Viscosity normalized to control” value ([3]; Table 62B series) was 0.59.

`NCCc1c[nH]c2ccccc12` [Tryptamine] was tested, and the “% increased stability” value [1] was 11.6%.

For `NCCO` [ethanolamine HCl], the kD ([2]; Table 62B series) was -22.4 mL/g and the “Viscosity normalized to control” value ([3]; Table 62B series) was 0.51.

In the case of `O=C(O)CCCc1ccccc1` [4-phenylbutyric acid], the “% increased stability” value [1] is reported as 9.0%.

`CCCCc1ncc[nH]1` [Excipient 2-butylimidazole, 2-butylimidazole] was tested, and the “DLS Viscosity, Replicate 1” value [4] was 26.0 cP.

With `NC(=O)c1ccc[n+]([C@@H]2O[C@H](COP(=O)([O-])O)[C@@H](O)[C@H]2O)c1` [nicotinamide mononucleotide] the kD ([2]; Table 62B series) was -31.4 mL/g and the “Viscosity normalized to control” value ([3]; Table 62B series) was 0.83.

For `COC(=O)[C@H](Cc1ccccc1)NC(=O)[C@@H](N)CC(=O)O` [Aspartame] (H-Asp-Phe-OMe), the “Viscosity normalized to control” value ([3]; Table 62A series) was 0.71.

For `Nc1ccc(C(=O)O)cc1` [p-aminobenzoic acid], the “% increased stability” value [1] was 2.7%.

`Cc1ncc[nH]1` [Excipient 2-methylimidazole, 2-methylimidazole] was tested, and the “DLS Viscosity, Replicate 1” value [4] was 65.6 cP and the “DLS Viscosity, Replicate 2” value [4] was 81.3 cP.

`CN(C)CCc1ccc(O)cc1` [Hordenine HCl] was tested, and the “DLS Viscosity, Replicate 1” value [4] was 36.9 cP and the “DLS Viscosity, Replicate 2” value [4] was 22.8 cP.

In the case of `CCc1ncc[nH]1` [Excipient 2-ethylimidazole, 2-ethylimidazole], the “DLS Viscosity, Replicate 1” value [4] is reported as 57.5 cP and the “DLS Viscosity, Replicate 2” value [4] is reported as 71.8 cP.

For `NCCCCNCCCN` [spermidine], the kD ([2]; Table 62B series) was -13.7 mL/g and the “Viscosity normalized to control” value ([3]; Table 62B series) was 0.31.

For `CC[N+](CC)(CC)CC.Cl` [Tetraethylammonium HCl], the “DLS Viscosity, Replicate 1” value [4] was 73.7 cP and the “DLS Viscosity, Replicate 2” value [4] was 58.3 cP.

`NCCCC[C@H](N)C(=O)O` [lysine] was tested, and the kD ([2]; Table 62B series) was -10.1 mL/g and the “Viscosity normalized to control” value ([3]; Table 62B series) was 0.46.

With `CN[C@@H]1[C@H](O)[C@H](NC)[C@H]2O[C@@]3(O)C(=O)C[C@@H](C)O[C@H]3O[C@@H]2[C@H]1O` [Spectinomycin] the “DLS Viscosity, Replicate 1” value [4] was 60.1 cP and the “DLS Viscosity, Replicate 2” value [4] was 33.9 cP.

For `O=C(O)/C=C/c1ccc(O)c(O)c1` [caffeic acid], the kD ([2]; Table 62A series) was -33.9 mL/g and the “Viscosity normalized to control” value ([3]; Table 62A series) was 0.73.

In the case of `Nc1nc(=O)c2c([nH]1)NCC(CNc1ccc(C(=O)N[C@@H](CCC(=O)[O-])C(=O)[O-])cc1)N2C=O.[Ca+2]` (some centres unmarked) [folinic acid calcium salt], the kD ([2]; Table 62B series) is reported as -34.9 mL/g and the “Viscosity normalized to control” value ([3]; Table 62B series) is reported as 0.93.

For `NCc1cccc(CN)c1` [m-xylylenediamine], the kD ([2]; Table 62B series) was -13.1 mL/g and the “Viscosity normalized to control” value ([3]; Table 62B series) was 0.22.

With `NCCCN` [1,3-diaminopropane] the kD ([2]; Table 62B series) was -11.4 mL/g and the “Viscosity normalized to control” value ([3]; Table 62B series) was 0.22.

In the case of `Nc1ccn([C@@H]2O[C@H](COP(=O)(O)O)[C@@H](O)[C@H]2O)c(=O)n1` [Cytidine monophosphate], the “% change in stability” value [5] is reported as 83.1%.

In the case of `NCC(=O)NCC(=O)NCC(=O)NCC(=O)O` [Tetraglycine] (H-GGGG-OH), the “DLS Viscosity, Replicate 1” value [4] is reported as 89.7 cP and the “DLS Viscosity, Replicate 2” value [4] is reported as 72.2 cP.

`CN1CCN(C)C1=O` [1,3-Dimethyl-2-imidazolidinone] was tested, and the kD ([2]; Table 62A series) was -30.9 mL/g and the “Viscosity normalized to control” value ([3]; Table 62A series) was 0.98.

`NCCS` [cysteamine HCl] was tested, and the kD ([2]; Table 62B series) was -18.5 mL/g and the “Viscosity normalized to control” value ([3]; Table 62B series) was 0.73.

`NC(=NO)c1ccccc1` [benzamide oxime] was tested, and the “% increased stability” value [1] was 1.4%.

With `OC[C@@H](O)[C@@H](O[C@@H]1O[C@H](CO)[C@H](O)[C@H](O)[C@H]1O)[C@H](O)[C@@H](O)CO` [Lactitol] the “% change in stability” value [5] was 0.6%.

In the case of `NC(C(=O)O)C(O)c1ccccc1` (racemic) [DL-3-phenylserine], the kD ([2]; Table 62B series) is reported as -30.7 mL/g and the “Viscosity normalized to control” value ([3]; Table 62B series) is reported as 1.04.

For `OCCN(CCO)c1nc(N2CCCCC2)c2nc(N(CCO)CCO)nc(N3CCCCC3)c2n1` [dipyridamole], the kD ([2]; Table 62B series) was -31.2 mL/g and the “Viscosity normalized to control” value ([3]; Table 62B series) was 1.10.

With `OC[C@H]1OC(O)[C@@H](O)[C@@H](O)[C@@H]1O` (some centres unmarked) [Mannose] the “% change in stability” value [5] was 9.4%.

In the case of `O=C(O)c1cccc(O)n1` [6-hydroxypyridine-2-carboxylic acid], the kD ([2]; Table 62A series) is reported as -31.9 mL/g and the “Viscosity normalized to control” value ([3]; Table 62A series) is reported as 0.93.

With `O=S(=O)(O)c1cccc2c(S(=O)(=O)O)cccc12` [1,5-naphthalenedisulfonic acid] the kD ([2]; Table 62A series) was -25.1 mL/g and the “Viscosity normalized to control” value ([3]; Table 62A series) was 0.83.

With `NCCCN` [1,3-Diaminopropane] the kD ([2]; Table 62A series) was -11.3 mL/g and the “Viscosity normalized to control” value ([3]; Table 62A series) was 0.49.

For `CNCC(=O)O` [sarcosine], the kD ([2]; Table 62B series) was -29.9 mL/g and the “Viscosity normalized to control” value ([3]; Table 62B series) was 1.33.
